Source: ChEMBL document CHEMBL2062499, “Synthesis of benzofuran based 1,3,5-substituted pyrazole derivatives: as a new class of potent antioxidants and antimicrobials--a novel accost to amend biocompatibility” (Bioorg Med Chem Lett, 2012)

Assays:
Escherichia coli [1] = test: Antibacterial activity Escherichia coli ATCC 25922 at 0.5 mg/ml after 24 hrs by well plate method; type: functional; conditions: ATCC 25922, 24 h, read-out: DIZ
Pseudomonas aeruginosa [2] = test: Antibacterial activity Pseudomonas aeruginosa ATCC 27853 at 1 mg/ml after 24 hrs by well plate method; type: functional; conditions: ATCC 27853, 24 h, read-out: DIZ
Candida albicans [3] = test: Antifungal activity against Candida albicans MTCC 2827 at 0.5 mg/ml after 72 hrs by well plate method; type: functional; conditions: MTCC 2827, 72 h, read-out: DIZ
Candida albicans [4] = test: Antifungal activity against Candida albicans MTCC 2827 at 1 mg/ml after 72 hrs by well plate method; type: functional; conditions: MTCC 2827, 72 h, read-out: DIZ
[5] = Antifungal activity against Chrysosporium keratinophilum MTCC 3017 at 0.5 mg/ml after 72 hrs by well plate method; type: functional
Staphylococcus aureus [6] = test: Antibacterial activity Staphylococcus aureus ATCC 25923 at 0.5 mg/ml after 24 hrs by well plate method; type: functional; conditions: ATCC 25923, 24 h, read-out: DIZ
Liver microsomes = test: Antioxidant activity in Wistar rat liver microsomes assessed as inhibition of microsomal lipid peroxidation after 15 mins by MDA-TBA assay; type: functional, Microsome
Aspergillus flavus [7] = test: Antifungal activity against Aspergillus flavus MTCC 3306 at 1 mg/ml after 72 hrs by well plate method; type: functional; conditions: MTCC 3306, 72 h, read-out: DIZ
[8] = tested on: Radical scavenging activity; test: Antioxidant activity assessed as DPPH radical scavenging activity after 20 mins by UV-Vis spectrophotometric analysis; type: functional
[9] = Antifungal activity against Chrysosporium keratinophilum MTCC 3017 at 1 mg/ml after 72 hrs by well plate method; type: functional
Pseudomonas aeruginosa [10] = test: Antibacterial activity Pseudomonas aeruginosa ATCC 27853 at 0.5 mg/ml after 24 hrs by well plate method; type: functional; conditions: ATCC 27853, 24 h, read-out: DIZ
Staphylococcus aureus [11] = test: Antibacterial activity Staphylococcus aureus ATCC 25923 at 1 mg/ml after 24 hrs by well plate method; type: functional; conditions: ATCC 25923, 24 h, read-out: DIZ
Aspergillus flavus [12] = test: Antifungal activity against Aspergillus flavus MTCC 3306 at 0.5 mg/ml after 72 hrs by well plate method; type: functional; conditions: MTCC 3306, 72 h, read-out: DIZ
Escherichia coli [13] = test: Antibacterial activity Escherichia coli ATCC 25922 at 1 mg/ml after 24 hrs by well plate method; type: functional; conditions: ATCC 25922, 24 h, read-out: DIZ

SMILES	zone of inhibition at 500 µg/mL (Escherichia coli [1]) [mm]	zone of inhibition at 1000 µg/mL (Pseudomonas aeruginosa [2]) [mm]	zone of inhibition at 500 µg/mL (Candida albicans [3]) [mm]	zone of inhibition at 1000 µg/mL (Candida albicans [4]) [mm]	inhibition zone (IZ) [5] [mm]	zone of inhibition at 500 µg/mL (Staphylococcus aureus [6]) [mm]	IC50 (Liver microsomes) [uM/ml]	zone of inhibition at 1000 µg/mL (Aspergillus flavus [7]) [mm]	IC50 [8] [uM/ml]	inhibition zone (IZ) [9] [mm]	zone of inhibition at 500 µg/mL (Pseudomonas aeruginosa [10]) [mm]	zone of inhibition at 1000 µg/mL (Staphylococcus aureus [11]) [mm]	zone of inhibition at 500 µg/mL (Aspergillus flavus [12]) [mm]	zone of inhibition at 1000 µg/mL (Escherichia coli [13]) [mm]
COc1cc(C2CC(c3cc4ccccc4o3)=NN2C(=O)Nc2ccc(Cl)cc2)ccc1O (stereo not drawn)	11	18	17	20	7	4	121	10	107	9	15	6	7	17
COc1cc(C2CC(c3cc4ccccc4o3)=NN2C(=O)Nc2ccccc2O)ccc1O (stereo not drawn)	1	4	3	4	2	1	22	2	19	4	2	2	1	3
OC(Cn1cncn1)(Cn1cncn1)c1ccc(F)cc1F [FLUCONAZOLE]	–	–	20	22	15	–	–	13	–	17	–	–	10	–
CN[C@@H]1[C@H](O[C@H]2[C@H](O[C@H]3[C@H](O)[C@@H](O)[C@H](N=C(N)N)[C@@H](O)[C@@H]3N=C(N)N)O[C@@H](C)[C@]2(O)C=O)O[C@@H](CO)[C@H](O)[C@H]1O [STREPTOMYCIN]	10	16	–	–	–	10	–	–	–	–	13	15	–	16
COc1cc(C2CC(c3cc4ccccc4o3)=NN2C(=O)Nc2ccccc2)ccc1O (stereo not drawn)	1	2	1	2	2	2	116	2	121	3	1	3	1	2
COc1cc(C2CC(c3cc4ccccc4o3)=NN2C(=O)Nc2ccc(O)cc2)ccc1O (stereo not drawn)	2	3	2	4	1	1	15	3	17	2	2	2	2	3
COc1ccc(NC(=O)N2N=C(c3cc4ccccc4o3)CC2c2ccc(O)c(OC)c2)cc1 (stereo not drawn)	1	7	3	5	2	1	29	4	25	4	5	2	3	13
COc1cc(C2CC(c3cc4ccccc4o3)=NN2C(=O)Cl)ccc1O (stereo not drawn)	2	2	3	4	2	1	147	2	135	3	2	2	1	3
COc1cc(C2CC(c3cc4ccccc4o3)=NN2C(=O)Nc2cccc(O)c2)ccc1O (stereo not drawn)	1	3	1	3	1	1	24	2	21	2	2	2	1	3
COc1cc(C2CC(c3cc4ccccc4o3)=NN2C(=O)Nc2ccc(O)c(O)c2)ccc1O (stereo not drawn)	1	5	1	2	1	1	11	3	9.5	2	3	2	2	2
COc1cc(C2CC(c3cc4ccccc4o3)=NN2C(=O)Nc2ccc([N+](=O)[O-])cc2)ccc1O (stereo not drawn)	9	9	4	5	3	6	113	5	103	4	7	8	3	15
COc1cc(C2CC(c3cc4ccccc4o3)=NN2C(=O)Nc2ccc(Br)cc2)ccc1O (stereo not drawn)	10	10	15	19	9	6	115	6	105	10	7	8	4	16
COc1cc(C2CC(c3cc4ccccc4o3)=NN2C(=O)Nc2ccc(C)cc2)ccc1O (stereo not drawn)	4	4	1	3	1	3	44	3	37	3	3	4	2	5
COc1cc(C2CC(c3cc4ccccc4o3)=NN2)ccc1O (stereo not drawn)	0	0	1	1	0	0	112	0	100	1	0	0	0	0
COc1cc(C2CC(c3cc4ccccc4o3)=NN2C(=O)Nc2ccc(F)cc2)ccc1O (stereo not drawn)	12	19	21	24	11	14	125	11	110	15	16	16	9	18
COc1cc(NC(=O)N2N=C(c3cc4ccccc4o3)CC2c2ccc(O)c(OC)c2)ccc1O (stereo not drawn)	1	2	1	2	2	2	12	2	10	3	1	3	1	2
